What all share (format): biochemical
Assay [1] addresses T1, FFA-albumin linkage (human serum albumin) (Homo sapiens, UniProt P02768). Put plainly: Example 1: rate of ACS-coupled NADH reaction (Procedure A) on FFA sample containing albumin, with dissociating agent. The following applies: sample 0.5 mM FFA + 2.5% human serum albumin, 37° C. As for the experimental part: 100 mM Tris-HCl buffer pH 8.0 containing 2 mg/ml of Triton X-100, 2 mM 2Na-EDTA (disodium ethylenediaminetetraacetate) and 10 mM MgCl2.
40 mg of ATP disodium salt, 50 mg of potassium phosphoenolpyruvate, 20 U of myokinase (available from Boehringer Mannheim (B.M.), grade I), 15 U of pyruvate kinase (available from B.M., grade II) and 15 U of lactate dehydrogenase (available from B.M., derived from rabbit muscle) are dissolved in 1 ml of the above-mentioned buffer.
In 1 ml of the above buffer, 3 mg of NADH disodium salt is dissolved.
An ACS solution in 50% glycerine in a concentration of about 4 U/ml as prepared in Preparation 1 which is diluted with three volumes of water is used.
Aqueous 0.5 mM potassium oleate solution is used. […] The content of the microcell was then preheated at 37° C. in a spectrophotometer (Shimadzu, model UV-200) equipped with a thermostated cell holder. Thereafter 20 μl of the CoA solution was added to initiate the reaction and decrease in optical density (OD) at 340 nm was recorded with the elapse of time. From the data, the value of maximum ΔOD/min was calculated.

For assay [2], the target named is T2, FFA-albumin linkage in human serum (Homo sapiens, UniProt P02768).
T2 construct: were replaced by human serum samples; from tissue; host or cells: human serum
T2 sequence (P02768 25-609): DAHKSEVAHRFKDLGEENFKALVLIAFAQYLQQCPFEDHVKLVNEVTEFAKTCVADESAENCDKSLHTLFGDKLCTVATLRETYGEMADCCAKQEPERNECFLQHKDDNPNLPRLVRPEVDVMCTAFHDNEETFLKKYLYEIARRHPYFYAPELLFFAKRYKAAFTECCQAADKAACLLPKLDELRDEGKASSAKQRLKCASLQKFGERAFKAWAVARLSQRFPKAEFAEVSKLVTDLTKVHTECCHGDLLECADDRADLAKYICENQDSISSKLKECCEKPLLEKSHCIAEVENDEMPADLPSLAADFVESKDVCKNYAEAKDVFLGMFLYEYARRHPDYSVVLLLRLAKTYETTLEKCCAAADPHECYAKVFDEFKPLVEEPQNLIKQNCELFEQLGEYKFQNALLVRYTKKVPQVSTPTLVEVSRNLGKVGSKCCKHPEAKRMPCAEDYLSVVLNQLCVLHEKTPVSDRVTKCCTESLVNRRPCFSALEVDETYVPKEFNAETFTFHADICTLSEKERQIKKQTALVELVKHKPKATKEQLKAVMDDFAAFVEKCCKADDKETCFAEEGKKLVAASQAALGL
As to the kind of experiment: Example 2: enzymatic assay of FFA in human serum samples (Procedure A) with dissociating agent. As for the experimental part:
The reaction was continued for 15 minutes at 37° C., and the OD340 values were read just before the addition of CoA solution and 15 minutes later when the reaction was almost complete and decrease in OD ceased. As a sample blank distilled water was substituted for the ACS solution in the reaction systems and the reaction and measurement of OD were carried out in the same way.
The concentration of FFA in a serum sample was calculated by the following equation: [formula] where:
A=0D340 of the reaction system just before the addition of CoA solution;
B=OD340 of the reaction system after 15 minutes
C=OD340 just before the addition of CoA solution in the blank run, and
D=OD340 after 15 minutes in the blank run.

For assay [3], the target named is T1, FFA-albumin linkage (human serum albumin). Put plainly: Example 3: ACS/ACO colorimetric FFA assay (Procedure B) on potassium oleate plus human serum albumin. As to conditions: 0.5% in assay system; sample 280 μM potassium oleate + 2.5% human serum albumin; without agent -0.016. The procedure: 100 mM Tris-HCl buffer pH 8.0 containing 3.2 mM Triton X-100, 2 mM disodium ethylenediaminetetraacetate and a dissociating agent such as a benzenesulfonate.
100 mM Tris-HCl buffer pH 8.0 containing 60 mM magnesium chloride.
A solution of 80 mg of ATP disodium salt and 20 U of myokinase dissolved in 40 ml of Buffer (1).
Prepared by adding 5 ml of the ACS solution in 50% glycerine with a concentration of about 4 U/ml as prepared in Preparation 1 to a solution of 25 mg of CoA in 5 ml of Buffer (2).
A suspension of ACO in 50% saturated ammonium sulfate having a concentration of about 50 U/ml and prepared as described in Preparation 2. […]
A mixture of 100 μl of a sample containing 280 μM potassium oleate and 2.5% human serum albumin, 400 μl of Enzyme Solution (1) and 100 μl of Enzyme Solution (2) was kept at 37° C. for 15 minutes. […] The reaction solution was placed into a cell having a thickness of 10 mm and the value (A) for optical density at 535 nm was measured. As a control, the sample was replaced by the same volume of water and the optical density value (B) was measured in the same way.
An aqueous potassium oleate solution which is free from albumin was separately prepared as a standard solution. This solution was substituted for the sample and the optical density value (C) was also measured in the same way. […]

Where [4] appears, read: human serum C, solution of dissociating agent 20 mM, extraction method 560.
The mark [5] stands for this setting: dissociating agent 25 mM, control with albumin 0.019, without albumin 0.076.

These results are taken from US4349625A, “Method for assaying fatty acids” (Mitsubishi Chemical Industries Limited, priority 1979, dated 1982).

Counter-ions that a name gives are not always drawn.

T1 sequence (P02768 25-609): as above

On to `O=C(O)CCCCCCCCCCCCC(=O)O` [Dipotassium 1,12-dodecamethylenedicarboxylate], for which the results for the “maximum ΔOD340/min” value in assay [1] (dissociating agent 2.5 mM) and in assay [1] (dissociating agent 10 mM) were 0.041 ΔOD340/min and 0.048 ΔOD340/min, respectively. In assay [2] (setting [4]), the FFA assayed was 575 µM.
For `O=C(O)CCCCCCCCCCCCCCC(=O)O` [Dipotassium 1,14-tetradecamethylenedicarboxylate], the “maximum ΔOD340/min” value in assay [1] (dissociating agent 2.5 mM) is 0.045 ΔOD340/min. The FFA assayed in assay [2] (human serum B, solution of dissociating agent 10 mM, extraction method 370) was found to be 340 µM; in assay [2] (human serum C, solution of dissociating agent 10 mM, extraction method 560), 570 µM.
As for `O=C(O)CCCCCCCCCCCCCCCCC(=O)O` [Dipotassium 1,16-hexadecamethylenedicarboxylate], in assay [1] (dissociating agent 2.5 mM), the “maximum ΔOD340/min” value was 0.032 ΔOD340/min.
For the compound `O=C(O)CCCCCCCCC(=O)O` [Potassium salt of 1,8-octamethylenedicarboxylic acid], the “maximum ΔOD340/min” value in assay [1] (setting [5]) is reported as 0.026 ΔOD340/min.
With `O=C(O)CCCCCCCCCCCC(=O)O` [Potassium salt of 1,11-undecamethylenedicarboxylic acid], the entries for the “maximum ΔOD340/min” value in assay [1] (dissociating agent 5 mM), in assay [1] (dissociating agent 10 mM) and in assay [1] (dissociating agent 20 mM) were 0.035 ΔOD340/min, 0.040 ΔOD340/min and 0.045 ΔOD340/min, respectively. For the same compound, the FFA assayed in assay [2] (human serum A, solution of dissociating agent 20 mM, extraction method 1475) stood at 1500 µM; in assay [2] (human serum B, solution of dissociating agent 20 mM, extraction method 370) it was 340 µM; in assay [2] (setting [4]), 570 µM.
With `O=C(O)CCCCCCCCCCC(=O)O` [Potassium salt of decamethylenedicarboxylic acid], the “maximum ΔOD340/min” value is listed as 0.028 ΔOD340/min in assay [1] (dissociating agent 5 mM), 0.031 ΔOD340/min in assay [1] (dissociating agent 10 mM) and 0.034 ΔOD340/min in assay [1] (dissociating agent 20 mM). This compound showed an FFA assayed in assay [2] (human serum B, solution of dissociating agent 50 mM, extraction method 370) of 335 µM.
In the case of `O=C(O)CCCCCCC(=O)O` [Potassium salt of hexamethylenedicarboxylic acid, reference compound], in assay [1] (setting [5]), the “maximum ΔOD340/min” value is 0.015 ΔOD340/min.
For `O=C(O)CCCCC(=O)O` [Potassium salt of tetramethylenedicarboxylic acid, reference compound], the “maximum ΔOD340/min” value in assay [1] (setting [5]) is listed as 0.015 ΔOD340/min.
`CCCCCc1ccc(S(=O)(=O)[O-])cc1.[Na+]` [Sodium p-n-amylbenzenesulfonate]: the “maximum ΔOD340/min” value in assay [1] (dissociating agent 50 mM) is 0.030 ΔOD340/min.
On to `Cc1ccc(S(=O)(=O)O)cc1` [Sodium p-toluenesulfonate], for which, in assay [3], the ΔOD535 is 0.078. In assay [1] (dissociating agent 100 mM), the “maximum ΔOD340/min” value is recorded as 0.030 ΔOD340/min. Further, the FFA assayed in assay [2] (human serum C, solution of dissociating agent 1000 mM, extraction method 560) is 585 µM.
